Source: PMC3139024 (Bioorganic & medicinal chemistry letters, 2011)

Key:
EcPDF = EcPDF (Escherichia coli, UniProt P0A6K3); experiment: EcPDF inhibition, potency and selectivity profiling; assay type: biochemical; settings: for EcPDF (%I): % Inhibition at 100 μM, average of duplicates, 100: ≥100 %I, 0: ≤0 %I
HL-60 tumors = experiment: mouse xenograft model using HL-60 cells; assay type: in vivo; settings: dose of 15 mg/kg, pilot study
[1] = tested on: panel of nine well characterized cancer cell lines; experiment: cytotoxicity profile across panel of nine cancer cell lines; assay type: cell-based; settings: read-out: cytotoxicity IC50 range across cancer cell lines
HsPDF = molecular target: T1, HsPDF (Homo sapiens, UniProt Q9HBH1); experiment: HsPDF inhibition, potency and selectivity profiling; assay type: biochemical; settings: for inhibition at 100 µM: read-out: HsPDF (%I); for HsPDF (%I): % Inhibition at 100 μM, average of duplicates, 100: ≥100 %I, 0: ≤0 %I
T1 sequence (Q9HBH1 40-243): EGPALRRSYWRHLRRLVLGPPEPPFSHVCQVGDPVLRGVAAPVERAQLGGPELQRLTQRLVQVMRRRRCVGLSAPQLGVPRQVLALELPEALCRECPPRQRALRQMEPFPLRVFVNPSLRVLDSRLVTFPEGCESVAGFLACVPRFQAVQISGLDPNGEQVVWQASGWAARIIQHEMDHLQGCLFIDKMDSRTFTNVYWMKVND

HEK293 = experiment: cytotoxicity profile, HEK293; assay type: cell-based; settings: Homo sapiens, HEK293, read-out: Cytotoxicity IC50, HEK293
HL-60/RV+ = experiment: cytotoxicity profile, HL-60/RV+; assay type: cell-based; settings: Homo sapiens, HL-60, read-out: Cytotoxicity IC50, HL-60/RV+
Y79 = experiment: cytotoxicity profile, Y79; assay type: cell-based; settings: Homo sapiens, Y79, read-out: Cytotoxicity IC50, Y79
CWR22 = experiment: cytotoxicity profile, CWR22; assay type: cell-based; settings: CWR22, read-out: Cytotoxicity IC50, CWR22
Meso47 = experiment: cytotoxicity profile, Meso47; assay type: cell-based; settings: read-out: Cytotoxicity IC50, Meso47
metalloproteases tested = experiment: activity toward the metalloproteases tested; assay type: biochemical; settings: Suppl. Table 2
APN = APN (Homo sapiens, UniProt P15144); experiment: APN inhibition, metalloprotease selectivity panel; assay type: biochemical; settings: % Inhibition at 100 μM, average of duplicates; 100: ≥100 %I; 0: ≤0 %I
APN, sequence (P15144 whole entry, species assumed): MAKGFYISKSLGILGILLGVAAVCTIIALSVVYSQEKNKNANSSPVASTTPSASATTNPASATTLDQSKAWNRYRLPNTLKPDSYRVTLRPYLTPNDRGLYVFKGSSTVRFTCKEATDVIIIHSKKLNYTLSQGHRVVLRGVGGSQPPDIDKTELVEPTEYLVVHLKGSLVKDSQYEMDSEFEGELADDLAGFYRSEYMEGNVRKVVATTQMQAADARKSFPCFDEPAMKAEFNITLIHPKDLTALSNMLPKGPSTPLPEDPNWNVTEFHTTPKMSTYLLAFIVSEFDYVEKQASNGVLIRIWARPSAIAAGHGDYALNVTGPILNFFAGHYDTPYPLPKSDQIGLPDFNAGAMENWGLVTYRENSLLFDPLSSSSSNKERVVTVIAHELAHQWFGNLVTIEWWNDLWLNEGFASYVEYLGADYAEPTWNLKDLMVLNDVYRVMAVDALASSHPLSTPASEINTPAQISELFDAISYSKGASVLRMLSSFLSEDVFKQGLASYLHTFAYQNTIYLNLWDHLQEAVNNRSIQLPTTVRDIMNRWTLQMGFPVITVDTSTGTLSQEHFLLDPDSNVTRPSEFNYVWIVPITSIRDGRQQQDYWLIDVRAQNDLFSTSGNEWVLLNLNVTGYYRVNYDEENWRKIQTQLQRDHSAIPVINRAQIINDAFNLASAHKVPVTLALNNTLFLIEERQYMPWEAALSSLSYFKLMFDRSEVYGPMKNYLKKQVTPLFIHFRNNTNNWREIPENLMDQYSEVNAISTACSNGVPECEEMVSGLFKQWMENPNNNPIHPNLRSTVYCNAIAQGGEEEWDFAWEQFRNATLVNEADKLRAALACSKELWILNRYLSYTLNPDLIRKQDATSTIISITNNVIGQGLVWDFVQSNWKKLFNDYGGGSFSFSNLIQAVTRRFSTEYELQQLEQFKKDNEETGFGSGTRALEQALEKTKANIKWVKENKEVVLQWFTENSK

MMP-1 = molecular target: T2, MMP-1 (Homo sapiens, UniProt P03956); experiment: MMP-1 inhibition, metalloprotease selectivity panel; assay type: biochemical; settings: for MMP-1 (%I): % Inhibition at 100 μM, average of duplicates, 100: ≥100 %I, 0: ≤0 %I
T2 sequence (P03956 100-469): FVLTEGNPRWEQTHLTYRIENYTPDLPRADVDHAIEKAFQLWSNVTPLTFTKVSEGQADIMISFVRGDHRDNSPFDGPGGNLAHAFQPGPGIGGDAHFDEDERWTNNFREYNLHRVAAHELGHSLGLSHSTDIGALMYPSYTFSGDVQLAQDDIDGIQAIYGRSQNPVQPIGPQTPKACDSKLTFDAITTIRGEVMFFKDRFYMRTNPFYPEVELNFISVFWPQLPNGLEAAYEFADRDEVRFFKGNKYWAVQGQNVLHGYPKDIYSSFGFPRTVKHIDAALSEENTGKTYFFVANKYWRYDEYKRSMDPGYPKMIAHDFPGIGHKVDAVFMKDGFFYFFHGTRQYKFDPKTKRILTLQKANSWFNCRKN

[2] = tested on: panel of 15 bacterial strains; experiment: organism not typed; assay type: cell-based

EcPDF, sequence (P0A6K3 whole entry): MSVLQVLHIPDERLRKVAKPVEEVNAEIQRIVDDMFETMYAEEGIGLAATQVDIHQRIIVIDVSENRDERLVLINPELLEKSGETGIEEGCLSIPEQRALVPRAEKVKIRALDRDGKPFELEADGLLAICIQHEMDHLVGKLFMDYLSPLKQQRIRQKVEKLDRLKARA

| Compound | IC50 (EcPDF) | inhibition at 100 µM (HsPDF) | IC50 (HEK293) | IC50 (Meso47) | other results |
| --- | --- | --- | --- | --- | --- |
| COc1cc(C(=O)c2coc3c2C(=O)C(=O)C(Br)=C3Br)cc(OC)c1OC [Compd 27] | > 100 µM | ≥ 100% | – | – | EcPDF (IC50, μM) (EcPDF): no significant activity; delay of growth of HL-60 tumors (HL-60 tumors): up to 40%; IC50 [1]: 2.8 to 37 µM |
| COc1ccc(C(=O)c2coc3c2C(=O)C(=O)C(Cl)=C3Cl)cc1OC [Compd 23] | – | ≥ 100% | ≥ 100 µM | – | IC50 (HL-60/RV+): ≥ 100 µM |
| COc1ccc(C(=O)c2coc3c2C(=O)C(=O)C(Cl)=C3)cc1 [Compd 20] | > 100 µM | – | ≥ 100 µM | – | – |
| COc1ccc(C(=O)c2coc3c2C(=O)C(=O)C(Br)=C3Br)cc1OC [Compd 26] | > 100 µM | ≥ 100% | ≥ 100 µM | ≥ 100 µM | IC50 (Y79): ≥ 100 µM; IC50 (CWR22): ≥ 100 µM |
| COc1ccc(C(=O)c2coc3c2C(=O)C(=O)c2ccccc2-3)cc1 [Compd 32] | – | – | – | – | activity toward any of the metalloproteases tested (metalloproteases tested): no activity |
| COc1ccc(C(=O)c2coc3c2C(=O)C(=O)c2ccccc2-3)cc1OC [Compd 33] | – | – | – | – | activity toward any of the metalloproteases tested (metalloproteases tested): no activity |
| COc1ccc(C(=O)c2coc3c2C(=O)C(=O)C(Br)=C3Br)cc1 [Compd 25] | > 100 µM | ≥ 100% | ≥ 100 µM | ≥ 100 µM | IC50 (HL-60/RV+): ≥ 100 µM |
| O=C1C=Cc2occ(C(=O)c3ccccc3)c2C1=O [Compd 16] | > 100 µM | ≥ 100% | – | – | EcPDF (%I) (EcPDF): low activity; APN (%I) (APN): low activity; HsPDF (%I) (HsPDF): completely inhibited; MMP-1 (%I) (MMP-1): low activity |
| O=C1C(=O)c2c(C(=O)c3ccccc3)coc2C(Cl)=C1Cl [Compd 5] | > 100 µM | ≥ 100% | ≥ 100 µM | ≥ 100 µM | MIC [2]: > 64 µg/mL; IC50 (Y79): ≥ 100 µM; IC50 (HL-60/RV+): ≥ 100 µM |
| COc1ccc(C(=O)c2coc3c2C(=O)C(=O)C=C3Cl)cc1 [Compd 19] | > 100 µM | ≥ 100% | – | ≥ 100 µM | – |
| COc1cc(C(=O)c2coc3c2C(=O)C(=O)C(Cl)=C3Cl)cc(OC)c1OC [Compd 24] | > 100 µM | ≥ 100% | – | ≥ 100 µM | – |
| CCCCC[C@H](CC(=O)NO)C(=O)N[C@H](C(=O)N1CCC[C@H]1CO)C(C)C [Compd 1, actinonin, reference compound] | – | – | – | – | antibacterial activity, number of strains ([2]; panel of 15 bacterial strains): active in 12 out of the 15 strains tested |
| COc1ccc(C(=O)c2coc3c2C(=O)C(=O)C(Cl)=C3Cl)cc1 [Compd 22] | > 100 µM | – | – | ≥ 100 µM | EcPDF (%I) (EcPDF): no significant activity; MIC [2]: > 64 µg/mL; MMP-1 (%I) (MMP-1): no significant activity; inhibition at 100 µM (MMP-1; read-out: MMP-1 (%I)): ≤ 0% |
| COc1ccc(C(=O)c2coc3c2C(=O)C(=O)C=C3)cc1 [Compd 17] | > 100 µM | – | – | ≥ 100 µM | EcPDF (%I) (EcPDF): low activity; APN (%I) (APN): low activity; HsPDF (%I) (HsPDF): completely inhibited; MMP-1 (%I) (MMP-1): low activity |
| COc1cc(C(=O)c2coc3c2C(=O)C(=O)c2ccccc2-3)cc(OC)c1OC [Compd 34] | – | – | – | – | activity toward any of the metalloproteases tested (metalloproteases tested): no activity |
| COc1ccc(C(=O)c2coc3c2C(=O)C(=O)C=C3Br)cc1 [Compd 21] | > 100 µM | ≥ 100% | – | ≥ 100 µM | – |
